# From patent publication US10934304B2, “Spirocyclic compounds” (Recurium IP Holdings, LLC, priority 2016, dated 2021)
# pIC50: −log10 of the molar value.
# Target: ERK2 (Homo sapiens (Human), UniProt P28482)
# Test: Active ERK1 and ERK2 Kinase Assay (Mobility Shift Assay)
# Format: biochemical
# Conditions: activated ERK2, Mobility Shift Assay
# Procedure: Activated ERK1 and ERK2 activity was determined in a Mobility Shift Assay (MSA) format as follows: Compound and kinase solution were prepared with assay buffer (20 mM HEPES, 0.01% Triton X-100, 2 mM DTT, pH7.5) and mixed and incubated in for 30 mins at rt. ERK1 & ERK2 were then activated by the addition of F1-Substrate, ATP and metal solution and incubated for 1 h at rt. After 1 h, the reaction was terminated by the addition of […] of Termination Buffer (QuickScout Screening Assist MSA; Carna Biosciences) to the well. The reaction mixture was applied to LabChip™ system (PerkinElmer), and the product and substrate peptide peaks were separated, analyzed and quantitated. The kinase reaction is evaluated by the product ratio calculated from peak heights of product (P) and substrate(S) peptides (P/(P+S)).
# Sequence of ERK2 (P28482 whole entry): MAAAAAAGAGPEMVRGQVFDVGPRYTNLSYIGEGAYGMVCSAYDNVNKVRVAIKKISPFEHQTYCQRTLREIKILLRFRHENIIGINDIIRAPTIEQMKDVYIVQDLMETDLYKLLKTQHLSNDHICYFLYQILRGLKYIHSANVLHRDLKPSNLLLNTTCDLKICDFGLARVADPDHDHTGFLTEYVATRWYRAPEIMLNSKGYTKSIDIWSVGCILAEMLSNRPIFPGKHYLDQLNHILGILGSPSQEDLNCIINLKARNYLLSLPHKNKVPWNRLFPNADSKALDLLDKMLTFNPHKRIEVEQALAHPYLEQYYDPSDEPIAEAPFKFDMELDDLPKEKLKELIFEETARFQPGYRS
row,Compound,pIC50
1,Cn1cnc(-c2ccc(C3=CCN(C(=O)CN4CC[C@]5(CCN(c6ccc7[nH]nc(-c8ccc(C#N)cc8)c7n6)C5=O)C4)CC3)cc2)n1 [Example 27],≥ 7.30
2,COc1ccc(-c2n[nH]c3ccc(N4CC[C@]5(CCN(CC(=O)N6CC=C(c7ccc(-c8ncn(C)n8)cc7)CC6)C5)C4=O)nc23)cc1 [Example 63],≥ 7.30
3,Cn1cnc(-c2cnc(C3=CCN(C(=O)CN4CC[C@]5(CCN(c6ccc7[nH]nc(-c8ccc(F)cc8)c7c6)C5=O)C4)CC3)s2)n1 [Example 17],≥ 7.30
4,CC(C)Oc1ccc(-c2n[nH]c3ccc(N4CC[C@]5(CCN(CC(=O)N6CC=C(c7ccc(-c8ncn(CCO)n8)cc7)CC6)C5)C4=O)nc23)cn1 [Example 89],≥ 7.30
5,Cn1cnc(-c2ccc(C3=CCN(C(=O)CN4CC[C@]5(CCN(c6ccc7[nH]nc(-c8ccc(C#N)cn8)c7n6)C5=O)C4)CC3)cc2)n1 [Example 51],≥ 7.30
6,Cn1cnc(-c2ccc(C3=CCN(C(=O)CN4CC[C@]5(CCN(c6ccc7[nH]nc(C8=CCOCC8)c7n6)C5=O)C4)CC3)cc2)n1 [Example 26],≥ 7.30
7,Cc1ncc(-c2n[nH]c3ccc(N4CC[C@]5(CCN(CC(=O)N6CC=C(c7ccc(-c8nn(C)c(=O)o8)cc7)CC6)C5)C4=O)cc23)s1 [Example 33],≥ 7.30
8,"CN1CCC(c2n[nH]c3ccc(N4CC[C@]5(CCN(CC(=O)N6CC=C(c7ccc(-c8ncn(C)n8)cc7)CC6)C5)C4=O)cc23)CC1 [Example 4, (S)-7-(2-(4-(4-(1-methyl-1H-1,2,4-triazol-3-yl)phenyl)-3,6-dihydropyridin-1(2H)-yl)-2-oxoethyl)-2-(3-(1-methylpiperidin-4-yl)-1H-indazol-5-yl)-2,7-diazaspiro[4.4]nonan-1-one]",≤ 6.60
9,Cn1cnc(-c2ccc(C3=CCN(C(=O)CN4CC[C@]5(CCN(c6ccc7[nH]nc(-c8ccc(OC9CCC9)nc8)c7n6)C5=O)C4)CC3)cc2)n1 [Example 77],≥ 7.30

# Test system: A375 (melanoma) cells
# Test: Proliferation Assay (CellTiter-Glo)
# Format: cell-based
# Conditions: 3 days incubation, CellTiter-Glo luminescence
# Procedure: A375 (melanoma), Colo-205 (colon cancer), Miapaca (pancreatic), HPAFII (pancreatic), sNF02.0 (neurofibromatosis type 1), sNF96.2 (neurofibromatosis type 1) and 8505 (Thyroid) cells were grown and maintained in RPMI-1640 medium containing 100 U/mL penicillin-streptomycin and 10% fetal bovine serum. Cells were in growth medium in 96-well opaque-walled clear bottom plates and incubated in the CO2 incubator overnight before treatment. Cells were treated with compounds diluted in DMSO and a 10 point 3-fold serial dilutions were done. Plates were placed in 37° C., 5% CO2 to incubate for 3 days. Before they were developed by adding 100 μL of CellTiter-Glo reagent (Promega) to the assay plate, plates were shaken briefly for 2 mins and allowed to incubate at room temperature for 10 mins. The bottom of the plates was pasted with white back seal and luminescence was recorded with Flexstation3 with setting of luminescence, integration time 500 ms.
# Compounds of Formula (I), (II) and (III) are active in this assay as noted in Table 2.
row,Compound,pIC50
1,COc1ccc(-c2n[nH]c3ccc(N4CC[C@]5(CCN(CC(=O)N6CC=C(c7ccc(-c8ncn(C)n8)cc7)CC6)C5)C4=O)nc23)cc1 [Example 63],≥ 6.30
2,Cn1cnc(-c2cnc(C3=CCN(C(=O)CN4CC[C@]5(CCN(c6ccc7[nH]nc(-c8ccc(F)cc8)c7c6)C5=O)C4)CC3)s2)n1 [Example 17],≥ 6.30
3,CC(C)Oc1ccc(-c2n[nH]c3ccc(N4CC[C@]5(CCN(CC(=O)N6CC=C(c7ncc(-c8ncn(C)n8)s7)CC6)C5)C4=O)nc23)cc1 [Example 94],≥ 6.30
4,CC(C)Oc1ccc(-c2n[nH]c3ccc(N4CC[C@]5(CCN(CC(=O)N6CC=C(c7ccc(-c8ncn(CCO)n8)cc7)CC6)C5)C4=O)nc23)cn1 [Example 89],≥ 6.30
5,Cn1cnc(-c2ccc(C3=CCN(C(=O)CN4CC[C@]5(CCN(c6ccc7[nH]nc(-c8ccc(C#N)cn8)c7n6)C5=O)C4)CC3)cc2)n1 [Example 51],≥ 6.30
6,Cn1cnc(-c2ccc(C3=CCN(C(=O)CN4CC[C@]5(CCN(c6ccc7[nH]nc(-c8ccc(OC9CCC9)nc8)c7n6)C5=O)C4)CC3)cc2)n1 [Example 77],≥ 6.30
7,CC(C)Oc1ccc(-c2n[nH]c3ccc(N4CC[C@]5(CCN(CC(=O)N6CC=C(c7ccc(-c8ncn(C)n8)cc7)CC6)C5)C4=O)nc23)cc1F [Example 116],≥ 6.30
8,CC(C)Oc1ccc(-c2n[nH]c3ccc(N4CC[C@]5(CCN(CC(=O)N6CC=C(c7ncc(-c8cn(C)cn8)s7)CC6)C5)C4=O)nc23)cn1 [Example 99],≥ 6.30
9,CC(C)Oc1ccc(-c2n[nH]c3ccc(N4CC[C@]5(CCN(CC(=O)N6CC=C(c7ccc(-c8ncn(C)n8)c(F)c7)CC6)C5)C4=O)nc23)cc1F [Example 117],≥ 6.30
10,CC(C)Oc1cnc(-c2n[nH]c3ccc(N4CC[C@]5(CCN(CC(=O)N6CC=C(c7ccc(-c8ncn(C)n8)cc7)CC6)C5)C4=O)cc23)c(F)c1 [Example 78],≤ 6.00
11,COc1ccc(F)c(-c2n[nH]c3ccc(N4CC[C@]5(CCN(CC(=O)N6CCC(c7ccc(-c8ncn(C)n8)cc7)CC6)C5)C4=O)cc23)n1 [Example 75],≥ 6.30
12,Cn1cnc(-c2cnc(C3=CCN(C(=O)CN4CC[C@]5(CCN(c6ccc7[nH]nc(-c8ccc(OC9CCC9)nc8)c7n6)C5=O)C4)CC3)s2)n1 [Example 90],≥ 6.30
13,CC(C)Oc1ccc(-c2n[nH]c3ccc(N4CC[C@]5(CCN(CC(=O)N6CC=C(c7ncc(-c8ncn(C)n8)s7)CC6)C5)C4=O)nc23)cc1F [Example 118],≥ 6.30
14,Cn1cnc(-c2ccc(C3=CCN(C(=O)CN4CC[C@]5(CCN(c6ccc7[nH]nc(-c8ccc(F)c(N9CCCC9)n8)c7c6)C5=O)C4)CC3)cc2)n1 [Example 119],6.00 to 6.30
15,CC(C)Oc1ccc(-c2n[nH]c3ccc(N4CCC5(CCN(C(C)C(=O)N6CC=C(c7ncc(-c8ncn(C)n8)s7)CC6)C5)C4=O)nc23)cn1 (mixture of isomers) [Example 95],≤ 6.00
16,CC(C)Oc1ccc(-c2n[nH]c3ccc(N4CCC5(CCN(CC(=O)N6CCN(c7ccc(-c8ncn(C)n8)cc7)CC6C)C5)C4=O)nc23)cn1 (mixture of isomers) [Example 85],≥ 6.30
17,CC(C)Oc1ccc(-c2n[nH]c3ccc(N4CC[C@]5(CCN(CC(=O)N6CC=C(c7ccc(-c8cn(C)cn8)cc7)CC6)C5)C4=O)nc23)cn1 [Example 98],≤ 6.00
18,CC(C)Oc1ccc(-c2n[nH]c3ccc(N4CCC5(CCN(CC(=O)N6CC=C(c7ccc(-c8ncn(C)n8)cc7)CC6)C5)C4=O)nc23)cn1 (stereo not drawn) [Example 83],≥ 6.30
19,Cc1n[nH]c2ccc(-c3n[nH]c4ccc(N5CC[C@]6(CCN(CC(=O)N7CC=C(c8ccc(-c9ncn(C)n9)cc8)CC7)C6)C5=O)nc34)cc12 [Example 100],≥ 6.30
20,CC(C)Oc1ccc(-c2n[nH]c3ccc(N4CC[C@]5(CCN(CC(=O)N6CCN(c7ncc(-c8ncn(C)n8)s7)CC6)C5)C4=O)nc23)cn1 [Example 87],≥ 6.30
21,CCn1cnc(-c2cnc(C3=CCN(C(=O)CN4CC[C@]5(CCN(c6ccc7[nH]nc(-c8ccc(OC(C)C)nc8)c7n6)C5=O)C4)CC3)s2)n1 [Example 88],≥ 6.30
22,CC(C)Oc1ccc(-c2n[nH]c3ccc(N4CC[C@]5(CCN(CC(=O)N6CCC(c7ncc(-c8ncn(C)n8)s7)CC6)C5)C4=O)nc23)cn1 [Example 86],≥ 6.30
23,CC(C)Oc1ccc(-c2n[nH]c3ccc(N4CC[C@]5(CCN(CC(=O)N6CC=C(c7ccc(-c8ncn(CCN(C)C)n8)cc7)CC6)C5)C4=O)nc23)cn1 [Example 97],≥ 6.30
24,CC(C(=O)N1CC=C(c2ncc(-c3ncn(C)n3)s2)CC1)N1CCC2(CCN(c3ccc4[nH]nc(-c5ccc(F)cc5)c4n3)C2=O)C1 (mixture of isomers) [Example 96],≤ 6.00

# Same assay, conditions: Homo sapiens, A-375, 72 h, 3 days incubation, CellTiter-Glo luminescence
row,Compound,pIC50
1,Cn1cnc(-c2ccc(C3=CCN(C(=O)CN4CC[C@]5(CCN(c6ccc7[nH]nc(-c8ccc(C#N)cc8)c7n6)C5=O)C4)CC3)cc2)n1 [Example 27],≥ 6.30
2,CC(C)Oc1ccc(-c2n[nH]c3ccc(N4CC[C@]5(CCN(CC(=O)N6CC=C(c7ccc(-c8ncn(C)n8)cn7)CC6)C5)C4=O)nc23)cc1 [Example 104],≥ 6.30
3,Cn1cnc(-c2ccc(C3=CCN(C(=O)CN4CC[C@]5(CCN(c6ccc7[nH]nc(C8=CCOCC8)c7n6)C5=O)C4)CC3)cc2)n1 [Example 26],≥ 6.30
4,Cc1ncc(-c2n[nH]c3ccc(N4CC[C@]5(CCN(CC(=O)N6CC=C(c7ccc(-c8nn(C)c(=O)o8)cc7)CC6)C5)C4=O)cc23)s1 [Example 33],≥ 6.30
5,"CN1CCC(c2n[nH]c3ccc(N4CC[C@]5(CCN(CC(=O)N6CC=C(c7ccc(-c8ncn(C)n8)cc7)CC6)C5)C4=O)cc23)CC1 [Example 4, (S)-7-(2-(4-(4-(1-methyl-1H-1,2,4-triazol-3-yl)phenyl)-3,6-dihydropyridin-1(2H)-yl)-2-oxoethyl)-2-(3-(1-methylpiperidin-4-yl)-1H-indazol-5-yl)-2,7-diazaspiro[4.4]nonan-1-one]",≤ 6.00
6,CC(C)Oc1ccc(-c2n[nH]c3ccc(N4CC[C@]5(CCN(CC(=O)N6CC=C(c7ccc(-c8ncn(C)n8)cc7)CC6)C5)C4=O)cc23)cc1 [Example 109],≥ 6.30
7,CC(C)Oc1ccc(-c2n[nH]c3ccc(N4CC[C@]5(CCN(CC(=O)N6CCN(c7ncc(-c8ncn(C)n8)s7)CC6)C5)C4=O)nc23)cc1 [Example 112],≥ 6.30
8,"O=C(Nc1ccc2[nH]nc(-c3ccncc3)c2c1)[C@@H]1CCN(CC(=O)N2CCN(c3ccc(-c4ncccn4)cc3)CC2)C1 [SCH772984, reference compound]",≥ 6.30
9,CC(C)Oc1ccc(-c2n[nH]c3ccc(N4CC[C@]5(CCN(CC(=O)N6CC=C(c7ccc(-c8ncn(C)n8)cc7)CC6)C5)C4=O)nc23)cc1 [Example 103],≥ 6.30
10,CC(C)n1cc(-c2n[nH]c3ccc(N4CC[C@]5(CCN(CC(=O)N6CC=C(c7ccc(-c8ncn(C)n8)cc7)CC6)C5)C4=O)nc23)ccc1=O [Example 111],≥ 6.30
11,CC(C)Oc1ccc(-c2n[nH]c3ccc(N4CC[C@]5(CCN(CC(=O)N6CC=C(c7ncc(-c8ncn(C)n8)s7)CC6)C5)C4=O)cc23)cc1 [Example 110],≥ 6.30
12,Cc1noc2ccc(-c3n[nH]c4ccc(N5CC[C@]6(CCN(CC(=O)N7CC=C(c8ccc(-c9ncn(C)n9)cc8)CC7)C6)C5=O)nc34)cc12 [Example 101],≥ 6.30
13,"CC(C)Nc1cc(-c2c[nH]c(C(=O)N[C@H](CO)c3cccc(Cl)c3)c2)c(Cl)cn1 [BVD-523, reference compound]",≥ 6.30
14,Cn1cnc(-c2cnc(C3=CCN(C(=O)CN4CC[C@]5(CCN(c6ccc7[nH]nc(C8CC8)c7n6)C5=O)C4)CC3)s2)n1 [Example 113],≥ 6.30
15,CC(C)Oc1ccc(-c2n[nH]c3ccc(N4CC[C@]5(CCN(CC(=O)N6CCN(c7ccc(-c8ncn(C)n8)cc7)C[C@@H]6C)C5)C4=O)nc23)cn1 [Example 115],≥ 6.30
16,"Cn1nccc1Nc1nccc(-c2ccn([C@H](CO)c3ccc(Cl)c(F)c3)c(=O)c2)n1 [GDC-0994, reference compound]",6.00 to 6.30
17,COc1cc(-c2n[nH]c3ccc(N4CC[C@]5(CCN(CC(=O)N6CC=C(c7ccc(-c8ncn(C)n8)cc7)CC6)C5)C4=O)nc23)ccc1OC(C)C [Example 107],≥ 6.30
18,CC(C)Oc1ccc(-c2n[nH]c3ccc(N4CC[C@]5(CCN(CC(=O)N6CCN(c7ccc(-c8ncn(C)n8)cc7)C[C@H]6C)C5)C4=O)nc23)cn1 [Example 114],≤ 6.00
19,COc1cc(-c2n[nH]c3ccc(N4CC[C@]5(CCN(CC(=O)N6CC=C(c7ncc(-c8ncn(C)n8)s7)CC6)C5)C4=O)nc23)ccc1OC(C)C [Example 108],≥ 6.30
20,Cc1ncc(-c2n[nH]c3ccc(N4CC[C@]5(CCN(CC(=O)N6CC=C(c7ccc(-c8ncn(C)n8)cc7)CC6)C5)C4=O)nc23)s1 [Example 30],≥ 6.30
21,CC(C)Oc1ccc(-c2n[nH]c3ccc(N4CC[C@]5(CCN(CC(=O)N6CC=C(c7ccc(-c8ncn(C)n8)nc7)CC6)C5)C4=O)nc23)cc1 [Example 105],6.00 to 6.30
